Assays:
Type in all cases: cell-based
IKAROS = target: T1, IKAROS (Homo sapiens, UniProt Q13422+Q96SW2); assay: IKAROS degradation assay (Western blot, MV-4-11 cells); conditions: MV4-11, 6-8 h
T1 construct: endogenous in cells; host or cells: MV-4-11
Procedure: (§1) MV-4-11 cells were grown in RPMI 1640 media supplemented with 10% fetal bovine serum, streptomycin and penicillin.
(§2) Cells were cultured at approximately 10^6 cells per mL and incubated in DMSO or the indicated compound for 6-8 h. Whole cell extracts were prepared using RIPA buffer according to manufacturer's protocol (Pierce). Briefly, 3×10^6 cells were washed once in PBS, the cell pellets were resuspended in RIPA buffer and allowed to incubate for 15 minutes on ice. Cells debris was removed by centrifugation and the cleared whole cell lysates were transferred to new tubes for further analysis.
(§3) For Western blot analysis, whole cell protein extracts were separated on 4-12% SDS-polyacrylamide gels, transferred to nitrocellulose and probed with the indicated primary antibodies. Membranes were subsequently washed and probed with the appropriate IRDye secondary antibodies (LI-COR). The signal was detected using the Odyssey Imaging System (LI-COR).
(§4) The following antibodies were used in these studies: Anti-eRF3/GSPT1: Abcam, ab126090 (Cambridge, Mass.); Anti-Ikaros: Abcam, ab191394 (Cambridge, Mass.); Anti-CK1α: Abcam, ab108296 (Cambridge, Mass.); Anti-CDK9: Santa Cruz Biotechnology, sc13130 (Dallas, Tex.); Anti-CDK16: Millipore Sigma, HPA001366 (St. Louis, Mo.); 3-actin (8H10comD10) mouse monoclonal antibody: Cell Signaling Technology, #3700 (Danvers, Mass.); IRDye 680RD Goat anti-rabbit antibody: LI-COR, 926-68071 (Lincoln, Nebr.); IRDye 800CW Goat anti-mouse antibody: LI-COR, 926-32210 (Lincoln, Nebr.).
(§5) CDK9 activities are shown in Table 4 at two different concentrations. CDK16 activities are shown in Table 5 at two different concentrations. In each of Tables 1-5, the % degradation values are reported as “A”, “B”, “C”, or “D”. “A” represents a % degradation value of less than 25% (value <25%). “B” represents a % degradation value of equal to or more than 25% and less than 50% (25%≤value<50%). “C” represents a % degradation value of equal to or more than 50% and less than 75% (50%≤value<75%). “D” represents a % degradation value of equal to or more than 75% (value ≥75%).

CK1α = target: T2, CK1α (Homo sapiens, UniProt P48729+Q96SW2); assay: CK1α degradation assay (Western blot, MV-4-11 cells); conditions: MV4-11, 6-8 h
T2 construct: Whole cell extracts were prepared using RIPA buffer; endogenous in cells; host or cells: MV-4-11
T2 sequence (P48729 whole entry): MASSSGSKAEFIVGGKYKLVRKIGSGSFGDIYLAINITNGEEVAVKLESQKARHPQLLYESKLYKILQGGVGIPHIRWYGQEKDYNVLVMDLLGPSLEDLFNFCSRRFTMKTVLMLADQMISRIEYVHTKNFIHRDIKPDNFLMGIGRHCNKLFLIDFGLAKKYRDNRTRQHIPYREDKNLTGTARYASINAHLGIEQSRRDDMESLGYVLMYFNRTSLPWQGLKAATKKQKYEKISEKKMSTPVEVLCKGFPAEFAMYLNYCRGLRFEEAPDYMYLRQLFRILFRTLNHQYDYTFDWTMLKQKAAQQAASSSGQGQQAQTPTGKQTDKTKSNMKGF
T2 sequence (Q96SW2 whole entry): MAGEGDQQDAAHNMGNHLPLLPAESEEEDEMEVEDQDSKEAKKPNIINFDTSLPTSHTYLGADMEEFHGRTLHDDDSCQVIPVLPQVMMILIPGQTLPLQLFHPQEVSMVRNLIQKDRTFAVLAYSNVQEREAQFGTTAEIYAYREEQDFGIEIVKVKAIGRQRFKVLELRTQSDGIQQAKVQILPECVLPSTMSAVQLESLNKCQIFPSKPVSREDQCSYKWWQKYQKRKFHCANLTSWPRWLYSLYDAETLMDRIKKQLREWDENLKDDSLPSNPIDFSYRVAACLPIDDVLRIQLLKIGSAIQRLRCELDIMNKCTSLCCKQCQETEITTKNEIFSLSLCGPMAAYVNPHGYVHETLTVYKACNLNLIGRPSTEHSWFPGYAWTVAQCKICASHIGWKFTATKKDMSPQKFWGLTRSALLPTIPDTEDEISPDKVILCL
T2 sequence (Q16531 whole entry partner): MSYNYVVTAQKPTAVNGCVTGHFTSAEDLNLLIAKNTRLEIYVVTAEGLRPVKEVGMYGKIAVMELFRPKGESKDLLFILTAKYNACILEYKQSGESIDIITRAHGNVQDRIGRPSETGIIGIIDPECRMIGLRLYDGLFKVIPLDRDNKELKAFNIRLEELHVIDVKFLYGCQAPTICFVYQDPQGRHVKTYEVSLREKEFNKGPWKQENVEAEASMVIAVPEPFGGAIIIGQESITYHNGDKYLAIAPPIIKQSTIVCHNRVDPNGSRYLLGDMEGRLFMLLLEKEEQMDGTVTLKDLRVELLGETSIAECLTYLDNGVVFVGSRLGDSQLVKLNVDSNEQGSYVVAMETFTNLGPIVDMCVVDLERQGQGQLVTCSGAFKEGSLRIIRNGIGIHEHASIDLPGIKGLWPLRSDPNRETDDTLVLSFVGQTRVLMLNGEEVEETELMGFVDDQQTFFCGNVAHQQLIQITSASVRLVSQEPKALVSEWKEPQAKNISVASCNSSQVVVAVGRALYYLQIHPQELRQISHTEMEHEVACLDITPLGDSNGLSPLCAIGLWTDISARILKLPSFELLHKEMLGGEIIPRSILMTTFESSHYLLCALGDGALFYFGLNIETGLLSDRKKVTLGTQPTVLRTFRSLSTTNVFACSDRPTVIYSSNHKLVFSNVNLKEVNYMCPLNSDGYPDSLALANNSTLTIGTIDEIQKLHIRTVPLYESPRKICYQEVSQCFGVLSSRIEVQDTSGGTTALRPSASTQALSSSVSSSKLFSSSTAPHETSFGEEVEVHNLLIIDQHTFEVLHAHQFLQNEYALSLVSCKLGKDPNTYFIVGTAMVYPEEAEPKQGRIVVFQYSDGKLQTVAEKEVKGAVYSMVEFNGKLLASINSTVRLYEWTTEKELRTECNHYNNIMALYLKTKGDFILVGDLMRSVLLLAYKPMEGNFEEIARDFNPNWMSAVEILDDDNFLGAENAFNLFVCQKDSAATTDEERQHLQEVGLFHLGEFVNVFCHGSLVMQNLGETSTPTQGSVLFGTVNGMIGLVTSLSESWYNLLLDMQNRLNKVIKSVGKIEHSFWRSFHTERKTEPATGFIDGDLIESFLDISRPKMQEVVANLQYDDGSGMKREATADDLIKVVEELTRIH
Procedure: as §1, §2, §3, §4, §5

IL-1β = IL-1β inhibition assay, LPS-induced PBMCs / CD14+ monocytes (Meso Scale); conditions: 1 h pretreatment, 100 ng/mL LPS 18-24 h
Procedure: (§6) Either frozen primary blood mononuclear cells (PBMCs) or frozen CD14+ mobilized peripheral blood monocytes were purchased from AllCells (PB003F, Normal Peripheral Blood MNC (Alameda, Calif.)). Cells were quick thawed, washed 1-time with RPMI-1640 (10% FBS/1% Pen-Strep) and plated in 96 well plates at 200,000 cells per well. Cells were pretreated with DMSO only or with the indicated compound for 1 h and then induced with 100 ng/mL lipopolysaccharide (LPS) for 18-24 h. The supernatant was analyzed for IL-1β, IL-6, and TNFα, using Meso Scale assay according to manufacturer's protocol. The negative control wells were treated with DMSO.
(§7) In Table 6, the % inhibition values are reported as “A”, “B”, “C”, or “D”. “A” represents a % inhibition value of less than 50% (value <50%). “B” represents a % inhibition value of equal to or more than 50% and less than 70% (50%≤value<70%). “C” represents a % inhibition value of equal to or more than 70% and less than 90% (70%≤value<90%). “D” represents a % inhibition value of equal or more than 90% (value ≥90%). In Table 7, the fold-change values are reported as “A”, “B”, “C”, or “D”. “A” represents a fold-change value of equal to or less than 0.1 (value ≤0.1). “B” represents a fold-change value of more than 0.1 and equal to or less than 0.5 (0.1<value≤0.5). “C” represents a fold-change value of more than 0.5 and equal to or less than 1 (0.5<value≤1). “D” represents a fold-change value of more than 1 (value >1).

IL-6 = IL-6 inhibition assay, LPS-induced PBMCs / CD14+ monocytes (Meso Scale); conditions: 1 h pretreatment, 100 ng/mL LPS 18-24 h
Procedure: as §6, §7

TNF-α = TNF-α inhibition assay, LPS-induced PBMCs / CD14+ monocytes (Meso Scale); conditions: 1 h pretreatment, 100 ng/mL LPS 18-24 h
Procedure: as §6, §7

MOLM-13 cells = assay: MOLM-13 cell viability assay (CellTiter-Glo); conditions: Homo sapiens, MOLM-13, 72 h, 3 days, read-out: MOLM-13 Cell Viability % DMSO at 1 μM
How it was run: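 MOLM-13 cells at 2500 cells/well were exposed to compound for 3 days at 37 °C. Viability was read by CellTiter-Glo luminescence and expressed as % of DMSO control, binned A (<50%), B (50–<70%), C (70–<90%) or D (≥90%).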

GSPT1 = target: T3, GSPT1 (Homo sapiens, UniProt P15170+Q96SW2); assay: GSPT1 degradation assay (Western blot, MV-4-11 cells); conditions: MV4-11, 6-8 h
T3 construct: Whole cell extracts were prepared using RIPA buffer; endogenous in cells; host or cells: MV-4-11
T3 sequence (P15170 whole entry): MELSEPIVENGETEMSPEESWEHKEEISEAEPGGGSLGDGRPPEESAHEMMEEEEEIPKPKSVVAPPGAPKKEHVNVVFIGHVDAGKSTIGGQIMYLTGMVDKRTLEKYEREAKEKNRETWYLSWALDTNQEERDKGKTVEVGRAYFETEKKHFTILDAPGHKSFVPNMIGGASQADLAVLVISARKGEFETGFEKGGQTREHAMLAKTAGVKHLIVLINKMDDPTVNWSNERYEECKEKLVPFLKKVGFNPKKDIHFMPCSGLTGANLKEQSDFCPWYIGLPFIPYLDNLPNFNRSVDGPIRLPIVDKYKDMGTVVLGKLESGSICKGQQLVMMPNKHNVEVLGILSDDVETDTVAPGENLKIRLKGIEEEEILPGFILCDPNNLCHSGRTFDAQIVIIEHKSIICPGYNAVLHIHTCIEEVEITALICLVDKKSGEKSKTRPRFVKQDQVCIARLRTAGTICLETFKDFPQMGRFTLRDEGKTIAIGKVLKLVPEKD
T3 sequence (Q96SW2 whole entry): as the sequence (Q96SW2 whole entry) above
T3 sequence (Q16531 whole entry partner): as the sequence (Q16531 whole entry partner) above
Procedure: as §1, §2, §3, §4, §5

CDK9 = target: T4, CDK9 (Homo sapiens, UniProt P50750); assay: CDK9 degradation assay (Western blot, MV-4-11 cells); conditions: 6-8 h
T4 construct: Whole cell extracts were prepared using RIPA buffer; endogenous in cells; host or cells: MV-4-11
T4 sequence (P50750 whole entry): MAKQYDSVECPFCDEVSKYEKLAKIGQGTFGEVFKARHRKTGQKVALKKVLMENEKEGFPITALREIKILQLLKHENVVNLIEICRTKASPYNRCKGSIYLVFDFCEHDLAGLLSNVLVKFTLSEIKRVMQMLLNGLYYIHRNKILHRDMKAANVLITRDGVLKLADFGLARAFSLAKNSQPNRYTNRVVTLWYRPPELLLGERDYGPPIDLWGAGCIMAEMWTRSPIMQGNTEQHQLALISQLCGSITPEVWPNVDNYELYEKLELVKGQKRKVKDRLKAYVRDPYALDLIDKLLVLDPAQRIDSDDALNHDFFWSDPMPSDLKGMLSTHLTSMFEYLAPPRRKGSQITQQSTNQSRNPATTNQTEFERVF
How it was run: (§8)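 Western blot, infrared fluorescence read-out: % degradation versus DMSO after 6-8 h compound treatment of ~10^6 cells/mL. RIPA whole-cell lysates on 4-12% gels, nitrocellulose transfer. Binned A <25%, B 25–<50%, C 50–<75%, D ≥75%.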

CDK16 = target: T5, CDK16 (Homo sapiens, UniProt Q00536); assay: CDK16 degradation assay (Western blot, MV-4-11 cells); conditions: 6-8 h
T5 construct: Whole cell extracts were prepared using RIPA buffer; endogenous in cells; host or cells: MV-4-11
T5 sequence (Q00536 whole entry): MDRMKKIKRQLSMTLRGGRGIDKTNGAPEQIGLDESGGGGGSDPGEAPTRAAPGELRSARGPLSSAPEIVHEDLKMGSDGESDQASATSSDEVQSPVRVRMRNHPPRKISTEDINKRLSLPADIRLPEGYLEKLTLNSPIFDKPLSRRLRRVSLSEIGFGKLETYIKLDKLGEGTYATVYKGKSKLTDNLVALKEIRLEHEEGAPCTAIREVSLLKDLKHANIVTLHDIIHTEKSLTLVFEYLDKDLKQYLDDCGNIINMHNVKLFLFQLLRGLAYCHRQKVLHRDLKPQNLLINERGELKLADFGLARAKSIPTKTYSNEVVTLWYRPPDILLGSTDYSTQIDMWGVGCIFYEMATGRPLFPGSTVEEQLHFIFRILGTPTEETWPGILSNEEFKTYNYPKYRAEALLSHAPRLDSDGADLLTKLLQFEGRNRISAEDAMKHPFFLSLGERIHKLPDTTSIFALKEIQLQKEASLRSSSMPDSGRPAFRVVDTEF
How it was run: as §8

T1 sequence (Q13422 whole entry): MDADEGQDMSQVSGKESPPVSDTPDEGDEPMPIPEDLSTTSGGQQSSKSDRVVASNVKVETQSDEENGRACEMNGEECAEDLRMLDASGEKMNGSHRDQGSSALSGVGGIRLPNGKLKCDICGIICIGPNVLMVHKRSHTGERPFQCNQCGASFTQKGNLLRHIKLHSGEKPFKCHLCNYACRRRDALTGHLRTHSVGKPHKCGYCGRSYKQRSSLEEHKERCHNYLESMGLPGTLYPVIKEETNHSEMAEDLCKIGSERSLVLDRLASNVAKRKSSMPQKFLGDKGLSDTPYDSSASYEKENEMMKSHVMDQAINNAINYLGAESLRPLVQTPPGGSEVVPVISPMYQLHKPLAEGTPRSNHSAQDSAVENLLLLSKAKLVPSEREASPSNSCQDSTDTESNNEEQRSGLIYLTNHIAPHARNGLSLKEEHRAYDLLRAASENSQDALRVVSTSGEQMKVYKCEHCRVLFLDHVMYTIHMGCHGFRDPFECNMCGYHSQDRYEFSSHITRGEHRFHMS
T1 sequence (Q96SW2 whole entry): as the sequence (Q96SW2 whole entry) above
T1 sequence (Q16531 whole entry partner): as the sequence (Q16531 whole entry partner) above

| Dmax at 1 µM (IKAROS) [%] | Dmax at 1 µM (CK1α) [%] | Dmax at 1 µM (GSPT1) [%] | Dmax at 0.1 µM (CDK9; MV4-11, 0.1 μM) [%] | Dmax at 1 µM (CDK9; MV4-11, 1 μM) [%] | Dmax at 0.1 µM (CDK16; MV4-11, 0.1 μM) [%] | Dmax at 1 µM (CDK16; MV4-11, 1 μM) [%] | Compound | inhibition at 1 µM (IL-1β) [%] | inhibition at 1 µM (IL-6) [%] | inhibition at 1 µM (TNF-α) [%] | viability at 1 µM (MOLM-13 cells) [%] |
| --- | --- | --- | --- | --- | --- | --- | --- | --- | --- | --- | --- |
| < 25 | < 25 |  |  |  |  |  | CC(C)(C)c1cnc(CSc2cnc(NC(=O)C3CCN(CC(=O)NCCOCCNC(=O)NCc4cccc5c4CN([C@H]4CCCC(=O)NC4=O)C5=O)CC3)s2)o1 [Compound 7, (S)—N-(5-(((5-(tert-butyl)oxazol-2-yl)methyl)thio)thiazol-2-yl)-1-(1-(2-(2,7-dioxoazepan-3-yl)-1-oxoisoindolin-4-yl)-3,11-dioxo-7-oxa-2,4,10-triazadodecan-12-yl)piperidine-4-carboxamide] | < 50 | < 50 | < 50 | < 50 |
| 50 to 75 | 50 to 75 |  |  |  |  |  | CC(C)(C)c1cnc(CSc2cnc(NC(=O)C3CCN(CC(=O)NCCCCNCc4ccc(OCc5scc6c5CN([C@H]5CCC(=O)NC5=O)C6=O)cc4)CC3)s2)o1 (stereo in doubt) [Compound 54, N-(5-(((5-(tert-butyl)oxazol-2-yl)methyl)thio)thiazol-2-yl)-1-(2-((4-((4-((5-(2,6-dioxopiperidin-3-yl)-4-oxo-5,6-dihydro-4H-thieno[3,4-c]pyrrol-1-yl)methoxy)benzyl)amino)butyl)amino)-2-oxoethyl)piperidine-4-carboxamide] |  |  |  | > 90 |
|  | < 25 |  | 50 to 75 | ≥ 75 | < 25 | 50 to 75 | Cn1ncc(-c2nc(N[C@H]3CC[C@H](NCCCCCCCCNC(=O)NCc4cc5c(s4)C(=O)N(C4CCC(=O)NC4=O)C5)CC3)ncc2Cl)c1CC1CC1 (some centres unmarked) [Compound 22, 1-(8-(((1r,4r)-4-((5-chloro-4-(5-(cyclopropylmethyl)-1-methyl-1H-pyrazol-4-yl)pyrimidin-2-yl)amino)cyclohexyl)amino)octyl)-3-((5-(2,6-dioxopiperidin-3-yl)-6-oxo-5,6-dihydro-4H-thieno[2,3-c]pyrrol-2-yl)methyl)urea] |  |  |  | > 90 |
| ≥ 75 | 25 to 50 | ≥ 75 |  |  |  |  | Cn1ncc(-c2nc(N[C@H]3CC[C@H](NCCOCCOCCOCCOCCNc4cccc5c4C(=O)N(C4CCC(=O)NC4=O)C5=O)CC3)ncc2Cl)c1CC1CC1 (some centres unmarked) [Compound 64, 4-((14-(((1r,4r)-4-((5-chloro-4-(5-(cyclopropylmethyl)-1-methyl-1H-pyrazol-4-yl)pyrimidin-2-yl)amino)cyclohexyl)amino)-3,6,9,12-tetraoxatetradecyl)amino)-2-(2,6-dioxopiperidin-3-yl)isoindoline-1,3-dione] |  |  |  | > 90 |
| 25 to 50 | < 25 |  |  |  |  |  | CC(C)(C)c1cnc(CSc2cnc(NC(=O)C3CCN(CC(=O)NCCOCCNC(=O)NCc4ccc5c(c4)CN([C@H]4CCCC(=O)NC4=O)C5=O)CC3)s2)o1 [Compound 6, (S)—N-(5-(((5-(tert-butyl)oxazol-2-yl)methyl)thio)thiazol-2-yl)-1-(1-(2-(2,7-dioxoazepan-3-yl)-1-oxoisoindolin-5-yl)-3,11-dioxo-7-oxa-2,4,10-triazadodecan-12-yl)piperidine-4-carboxamide] | < 50 | 50 to 70 | < 50 | < 50 |

The next lines start with the compound.

| Compound | Dmax at 1 µM (IKAROS) [%] | Dmax at 1 µM (CK1α) [%] | Dmax at 1 µM (GSPT1) [%] | Dmax at 0.1 µM (CDK9; MV4-11, 0.1 μM) [%] | Dmax at 1 µM (CDK9; MV4-11, 1 μM) [%] | Dmax at 0.1 µM (CDK16; MV4-11, 0.1 μM) [%] | Dmax at 1 µM (CDK16; MV4-11, 1 μM) [%] | inhibition at 1 µM (IL-1β) [%] | inhibition at 1 µM (IL-6) [%] | inhibition at 1 µM (TNF-α) [%] | viability at 1 µM (MOLM-13 cells) [%] |
| --- | --- | --- | --- | --- | --- | --- | --- | --- | --- | --- | --- |
| Cn1ncc(-c2nc(N[C@H]3CC[C@H](NCCOCCOCCOCCNCc4ccc(OCc5scc6c5CN([C@H]5CCC(=O)NC5=O)C6=O)cc4)CC3)ncc2Cl)c1CC1CC1 [Compound 69, (S)-3-(1-((4-(13-(((1r,4r)-4-((5-chloro-4-(5-(cyclopropylmethyl)-1-methyl-1H-pyrazol-4-yl)pyrimidin-2-yl)amino)cyclohexyl)amino)-5,8,11-trioxa-2-azatridecyl)phenoxy)methyl)-4-oxo-4H-thieno[3,4-c]pyrrol-5(6H)-yl)piperidine-2,6-dione] | ≥ 75 | 50 to 75 |  |  |  |  |  | 70 to 90 | < 50 | 70 to 90 | < 50 |
| CC(C)(C)c1cnc(CSc2cnc(NC(=O)C3CCN(CC(=O)NCCCCCNC(=O)NCc4scc5c4CN(C4CCC(=O)NC4=O)C5=O)CC3)s2)o1 (centres unmarked) [Compound 11, N-(5-(((5-(tert-butyl)oxazol-2-yl)methyl)thio)thiazol-2-yl)-1-(2-((5-(3-((5-(2,6-dioxopiperidin-3-yl)-4-oxo-5,6-dihydro-4H-thieno[3,4-c]pyrrol-1-yl)methyl)ureido)pentyl)amino)-2-oxoethyl)piperidine-4-carboxamide] |  | 25 to 50 | 25 to 50 |  |  |  |  |  |  |  | > 90 |
| Cn1ncc(-c2nc(N[C@H]3CC[C@H](NCC(=O)NCCNC(=O)NCc4cc5c(s4)C(=O)N(C4CCC(=O)NC4=O)C5)CC3)ncc2Cl)c1CC1CC1 (some centres unmarked) [Compound 45, 2-(((1r,4r)-4-((5-chloro-4-(5-(cyclopropylmethyl)-1-methyl-1H-pyrazol-4-yl)pyrimidin-2-yl)amino)cyclohexyl)amino)-N-(2-(3-((5-(2,6-dioxopiperidin-3-yl)-6-oxo-5,6-dihydro-4H-thieno[2,3-c]pyrrol-2-yl)methyl)ureido)ethyl)acetamide] | 25 to 50 | < 25 | 25 to 50 |  |  |  |  |  |  |  | > 90 |
| Cn1ncc(-c2nc(N[C@H]3CC[C@H](NC(=O)CCCCCCNCC(=O)NCc4ccc(COc5cccc6c5CN(C5CCC(=O)NC5=O)C6=O)cc4)CC3)ncc2Cl)c1CC1CC1 (some centres unmarked) [Compound 8, N-((1r,4r)-4-((5-chloro-4-(5-(cyclopropylmethyl)-1-methyl-1H-pyrazol-4-yl)pyrimidin-2-yl)amino)cyclohexyl)-7-((2-((4-(((2-(2,6-dioxopiperidin-3-yl)-1-oxoisoindolin-4-yl)oxy)methyl)benzyl)amino)-2-oxoethyl)amino)heptanamide] | 50 to 75 |  | < 25 |  |  |  |  | < 50 | < 50 | < 50 | 70 to 90 |

— patent publication US20220153751A1, “BIFUNCTIONAL COMPOUNDS” (BioTheryX, Inc., priority 2018, published 2022)
